Key:
[1] = Radiochemical purity of [18F]FDG by TLC after pH adjustment, standing at room temperature; format: physicochemical; conditions: for radiochemical purity: room temperature
Protocol: [^18F]FDG (radiochemical purity 100%) was prepared according to known procedure (Ind. J. Appl. Radiatl Isot 35 1984 985-986) was formulated with physiological saline and hydrogen ion concentration was adjusted to 6, 7, and 8, respectively, using sodium bicarbonate, and then was allowed to stand at room temperature for 0, 2, 4, and 6 hours.

[2] = Radiochemical purity by HPLC after neutralization with sodium bicarbonate, standing at room temperature; format: physicochemical; conditions: for radiochemical purity: room temperature; for impurities generated (HPLC chromatogram): pH 7, room temperature, no ethanol
Protocol: [^18F]fluoro-dopa (radiochemical purity 100%) was prepared according to known procedures (see Appl. Radiat. Isot. 672009 1650-1653), the initial hydrogen ion concentration of the prepared [^18F]fluoro-dopa (radiochemical purity 100%) is 4. This was formulated into physiological saline, and hydrogen ion concentration was adjusted to 6, 7, and 8, respectively, using sodium bicarbonate. Each time the solution was allowed to stand at room temperature (or at room temperature) for 0, 2, 4 and 6 hours, high-performance liquid chromatograph (HPLC) was used to measure the radiochemical purity. […]
[^18F]fluoro-dopa (radiochemical purity 100%) was prepared according to known procedures (see: Appl. Radiat. Isot. 67 2009 1650-1653), and the hydrogen ion concentration was adjusted to 7 (pH 7) using sodium bicarbonate after preparation with physiological saline. The determination of whether the radiochemical purity was generated was confirmed by measurement using HPLC (high-performance liquid chromatography) after 2 and 6 hours at room temperature. The results are illustrated in FIGS. 1 and 2. […]

[3] = IASOdopa SPC; cited from earlier work

Row | SMILES | radiochemical purity ([2]; pH 6, 0 hour, HPLC) [%] | radiochemical purity ([2]; pH 6, 2 hours, HPLC) [%] | radiochemical purity ([2]; pH 6, 4 hours, HPLC) [%] | radiochemical purity ([2]; pH 6, 6 hours, HPLC) [%] | radiochemical purity ([2]; pH 7, 0 hour, HPLC) [%] | radiochemical purity ([2]; pH 7, 2 hours, HPLC) [%] | radiochemical purity ([2]; pH 7, 4 hours, HPLC) [%] | radiochemical purity ([2]; pH 7, 6 hours, HPLC) [%] | radiochemical purity ([2]; pH 8, 0 hour, HPLC) [%] | radiochemical purity ([2]; pH 8, 2 hours, HPLC) [%] | radiochemical purity ([2]; pH 8, 4 hours, HPLC) [%] | radiochemical purity ([2]; pH 8, 6 hours, HPLC) [%] | other results
1 | OC[C@H]1OC(O)[C@H]([18F])[C@@H](O)[C@@H]1O (some centres unmarked) [[^18F]FDG] |  |  |  |  |  |  |  |  |  |  |  |  | radiochemical purity ([1]; pH 6, 0 hour): 99.07%; radiochemical purity ([1]; pH 6, 2 hours): 98.04%; radiochemical purity ([1]; pH 6, 4 hours): 98.12%; radiochemical purity ([1]; pH 6, 6 hours): 99.12%; radiochemical purity over time at a neutral pH ([1]; pH 6 to 8, physiological saline, up to 6 hours): ≥ 90%; radiochemical purity ([1]; pH 7, 0 hour): 99.23%; radiochemical purity ([1]; pH 7, 2 hours): 100%; radiochemical purity ([1]; pH 7, 4 hours): 99.46%; radiochemical purity ([1]; pH 7, 6 hours): 98.12%; radiochemical purity ([1]; pH 8, 0 hour): 99.78%; radiochemical purity ([1]; pH 8, 2 hours): 99.01%; radiochemical purity ([1]; pH 8, 4 hours): 99.89%; radiochemical purity ([1]; pH 8, 6 hours): 100%
2 | Cc1cn([C@H]2C[C@H]([18F])[C@@H](CO)O2)c(=O)[nH]c1=O [[^18F]FLT] | 100 | 100 | 99.78 | 100 | 100 | 100 | 100 | 100 | 99.15 | 100 | 99.29 | 100 | radiochemical purity over time at a neutral pH ([2]; pH 6 to 8, physiological saline, up to 6 hours, HPLC): ≥ 90%
3 | N[C@@H](Cc1cc(O)c(O)cc1[18F])C(=O)O [[^18F]fluoro-dopa, L-6-[^18F]FLUORO-3,4-DIHYDROXYPHENYLALANINE] | 100 | 96.66 | 92.6 | 87.95 | 100 | 92.02 | 78.67 | 63.81 | 99.73 | 91.14 | 76.58 | 51.78 | pH at which it is oxidized [3]: ≥ 4.5; impurities generated (HPLC chromatogram) ([2]; 2 hours after neutralization): the first impurity (IMP 1) was generated; impurities generated (HPLC chromatogram) ([2]; 6 hours after neutralization): the first impurity (IMP 1) and the second purity (IMP 2) were generated

Source: patent publication US20190134234A1, “COMPOSITION FOR STABILIZING RADIOCHEMICAL PURITY OF [18F] FLUORO-DOPA AND METHOD FOR PREPARING SAME” (CI-CO HEALTHCARE CO., LTD., priority 2015, published 2019)
